Experimental findings from US8814930B2, “Biodegradable endoprosthesis and methods for their fabrication” (Elixir Medical Corporation, priority 2007, dated 2014) are described below.

This data set can be described thus: Pharmacokinetic release profile of novolimus from a stent (FIG. 35). The data set is classed as in vivo.

Structures are written as SMILES.

In the case of `CO[C@@H]1C[C@H](C[C@@H](C)[C@@H]2CC(=O)[C@H](C)/C=C(\C)[C@@H](O)[C@@H](OC)C(=O)[C@H](C)C[C@H](C)/C=C/C=C/C=C(\C)[C@@H](O)C[C@@H]3CC[C@@H](C)[C@@](O)(O3)C(=O)C(=O)N3CCCC[C@H]3C(=O)O2)CC[C@H]1O` [novolimus, 16-O-desmethyl-rapamycin], the “therapeutic tissue drug concentration” value (at 90 days) is reported as 0.5 ng/mg. For the same compound, the drug released entry (in one month, from a stent) is “over 85%”.
